The results in this text go back to US4803074A, “FR-900848 substance and preparation thereof” (priority 1987, dated 1989).

One series in a line: Solubility. It counts as physicochemical.
The subject of a further series is fungi. Description: In vitro antimicrobial activity (summary statement). The note with it: for example Aspergillus niger, Geotrichum candidum, Trichophyton asteroides. Type of series: cell-based. The method, then:
(§1) In vitro antimicrobial activity was determined by the two-fold agar-plate dilution method as described below.
(§2) One loopful of an overnight culture of each test strain in malt extract broth was streaked on malt extract agar containing graded concentrations of FR-900848 substance and MIC was determined after incubation at 37° C. for 20 hours.

Series [1] deals with Mucor rouxianus (Calmette) Wehmer. As to the kind of experiment: MIC (minimal inhibitory concentration), two-fold agar-plate dilution method. Type of series: cell-based. Conditions: 20 h, read-out: MIC (minimal inhibitory concentration). The method, then: as §1, §2
In the next series the test system is Geotrichum candidum. The series is described as above. Type of series: cell-based. The note with it: malt extract agar, 37° C., 20 hours. The method, then:
as §1, §2

The test system of another series is Fusarium oxysporum. The description is as above. Type of series: cell-based. Conditions: malt extract agar, 37° C., 20 hours. The protocol: as §1, §2
Series [2] has as its system Aspergillus niger IFO 4417. The series is described as above. Type of series: cell-based. The note with it: IFO4417, malt extract agar, 37° C., 20 hours. The protocol: as §1, §2
Another series has as its system Aureobasidium pullulans. The description is as above. It counts as cell-based. Conditions: malt extract agar, 37° C., 20 hours. The protocol: as §1, §2
The next series deals with Trichophyton asteroides. The description is as above. It counts as cell-based. The note with it: malt extract agar, 37° C., 20 hours. The protocol:
as §1, §2

The next series has as its system Sclerotinia arachidis. The description is as above. Type of series: cell-based. The note with it: malt extract agar, 37° C., 20 hours. The method, then: as §1, §2
The nature of series [3]: Acute toxicity by intraperitoneal injection. The note with it: mouse, in vivo, ip, mice (ICR, male, 4 weeks old). The source says: Acute toxicity of FR-900848 substance in mice (ICR, male, 4 weeks old) by intraperitoneal injection is more than 1.0 g/kg.

Values after ≈ are worked out from the molar mass of the structure shown.

Broadly, the LD50 is the dose at which mortality reaches 50%. Lower therefore signals a more toxic substance. As for `CC1CC1C=CC1CC1C1CC1C1CC1C1CC1C=CC=CC(=O)NCC1OC(N2CCC(=O)NC2=O)C(O)C1O` (centres unmarked) [FR-900848 substance], the Solubility entry is recorded as “slightly soluble” in the series “Solubility” (chloroform); “soluble” in “Solubility” (dimethylsulfoxide); “slightly soluble” in “Solubility” (ethyl acetate); “slightly soluble” in the series “Solubility” (methanol); “insoluble” in the series “Solubility” (water). In the series with fungi, the “antimicrobial activity against fungi” value is given as “showed antimicrobial activity”. For the same molecule, the MIC was 0.03 µg/mL (≈ 0.053 µM) in series [1]; 0.12 µg/mL (≈ 0.212 µM) in the series on Geotrichum candidum; 0.05 µg/mL (≈ 0.0884 µM) in the series with Fusarium oxysporum; 0.015 µg/mL (≈ 0.0265 µM) in [2]; 0.03 µg/mL (≈ 0.053 µM) against Aureobasidium pullulans; 0.5 µg/mL (≈ 0.884 µM) in the series with Trichophyton asteroides. The molecule also displayed an MIC in the series with Sclerotinia arachidis of 0.05 µg/mL (≈ 0.0884 µM). The molecule also came in with a 50% lethal dose (LD50) in series [3] of over 1000 mg/kg.
